Patent US9932637B2, “Genetic polymorphisms associated with cardiovascular disorders and drug response, methods of detection and uses thereof” (CELERA CORPORATION, priority 2003, dated 2018)

Tested on: patients with prior myocardial infarction (CARE study)
Assay: CARE: association of SNPs with pravastatin treatment in cardiovascular events prevention (logistic regression, odds ratio pravastatin vs placebo by genotype; Table 8)
Format: in vivo, human
Settings: for Fatal/Non-fatal Atherosclerotic CV Disease, n/total (%) / Hosp. for Cardiovascular Disease, n/total (%) / Total Cardiovascular Disease Events, n/total (%) / Prava vs. Placebo Odds Ratio, 0 Rare Alleles / Prava vs. Placebo Odds Ratio, 1 Rare Alleles / Prava vs. Placebo Odds Ratio, 2 Rare Alleles / Fatal CHD/Definite Non-fatal MI, n/total (%) / Total Coronary Heart Disease Events, n/total (%): All Patients; for Fatal/Non-fatal Atherosclerotic CV Disease, n/total (%) / Hosp. for Cardiovascular Disease, n/total (%) / Total Cardiovascular Disease Events, n/total (%) / Fatal CHD/Definite Non-fatal MI, n/total (%) / Total Coronary Heart Disease Events, n/total (%): Prava; for Stroke, n/total (%): PECAM1 hCV16170911, All Patients, Prava arm
Text: In order to identify genetic markers associated with acute coronary events (e.g. MI, stroke, unstable angina, congestive heart failure, etc.) or response to statin treatment for the prevention of coronary events, samples from the Cholesterol and Recurrent Events (CARE) study (a randomized multicentral double-blinded trial on secondary prevention of acute coronary events with pravastatin) (Sacks et al., 1991, Am. J. Cardiol. 68: 1436-1446) were genotyped. A well-documented myocardial infarction (MI) was one of the enrollment criteria for entry into the CARE study. Patients were enrolled in the CARE trial from 80 participating study centers. […] Patients were randomized to receive either 40 mg of pravastatin once daily or a matching placebo. The primary endpoint of the trial was death from coronary heart disease and the median duration of follow-up was 5.0 years (range, 4.0 to 6.2 years). […] Secondary endpoints of other related cardiovascular or metabolic disease events, and changes in clinical variables were also recorded in pravastatin-treated and placebo groups. All individuals included in the study had signed a written informed consent form and the study protocol was approved by the respective Institutional Review Boards (IRBs).
For genotyping SNPs in CARE patient samples, DNA was extracted from blood samples using conventional DNA extraction methods such as the QIA-amp kit from Qiagen. Genotypes were obtained on an ABI PRISM® 7900HT Sequence Detection PCR system (Applied Biosystems, Foster City, Calif.) by kinetic allele-specific PCR, similar to the method described by Germer et al. (Germer S., Holland M. J., Higuchi R. 2000, Genome Res. 10: 258-266).
Statistical analysis for association of SNPs with pravastatin treatment in cardiovascular events prevention (Table 8) was carried out using an overall logistic regression model that included an intercept, a parameter for the effect of a genotype containing two rare alleles versus a genotype containing no rare alleles, a parameter for the effect of a genotype containing one rare allele versus a genotype containing no rare alleles, a parameter for the effect of use of pravastatin versus the use of placebo, and parameters for the interaction effects between SNP genotypes and pravastatin use. The test of the overall model is a chi-square test with two degrees of freedom for analyses containing all three genotypes, and one degree of freedom for analyses containing two genotypes.
Effect sizes were estimated through odds ratios (pravastatin group versus placebo) for carriers of each genotype (groups of 0, 1, and 2 minor allele carriers). The effect was considered to be significant if p-value for testing whether any of the interactions between SNP genotypes and pravastatin use were <0.05. […] Odds ratios less than one indicate that the specific SNP allele has a protective effect and odds ratios greater than one indicate that the specific SNP allele has an adverse effect.

[1] = NPC1 hCV7490135, Cardiovascular Mortality
[2] = NPC1 hCV7490135, Fatal Atherosclerotic Cardiovascular Disease
[3] = NPC1 hCV7490135, Fatal/Non-fatal Atherosclerotic CV Disease
[4] = NPC1 hCV7490135, Hosp. for Cardiovascular Disease
[5] = NPC1 hCV7490135, Total Cardiovascular Disease Events
[6] = NPC1 hCV7490135, Total Coronary Heart Disease Events
[7] = NPC1 hCV25472673, Fatal CHD/Definite Non-fatal MI
[8] = NPC1 hCV25472673, Fatal/Non-fatal Atherosclerotic CV Disease
[9] = NPC1 hCV25472673, Hosp. for Cardiovascular Disease
[10] = NPC1 hCV25472673, Total Cardiovascular Disease Events
[11] = NPC1 hCV25472673, Total Coronary Heart Disease Events
[12] = PEMT hCV7443062, Fatal CHD/Definite Non-fatal MI

CC[C@H](C)C(=O)O[C@H]1C[C@H](O)C=C2C=C[C@H](C)[C@H](CC[C@@H](O)C[C@@H](O)CC(=O)O)[C@H]21 [pravastatin]
Fatal/Non-fatal Atherosclerotic CV Disease, n/total (%) (NPC1 hCV7490135, 2 Rare Alleles, n/total 93/324): (28.7%)
Hosp. for Cardiovascular Disease, n/total (%) (NPC1 hCV7490135, 2 Rare Alleles, n/total 117/324): (36.1%)
Total Cardiovascular Disease Events, n/total (%) (NPC1 hCV7490135, 2 Rare Alleles, n/total 119/324): (36.7%)
Prava vs. Placebo Odds Ratio, 0 Rare Alleles [1]: 1.30
Prava vs. Placebo Odds Ratio, 1 Rare Alleles [1]: 0.83
Prava vs. Placebo Odds Ratio, 2 Rare Alleles [1]: 0.20
Prava vs. Placebo Odds Ratio, 0 Rare Alleles [2]: 1.25
Prava vs. Placebo Odds Ratio, 1 Rare Alleles [2]: 0.83
Prava vs. Placebo Odds Ratio, 2 Rare Alleles [2]: 0.20
Prava vs. Placebo Odds Ratio, 0 Rare Alleles [3]: 1.07
Prava vs. Placebo Odds Ratio, 1 Rare Alleles [3]: 0.73
Prava vs. Placebo Odds Ratio, 2 Rare Alleles [3]: 0.56
Prava vs. Placebo Odds Ratio, 0 Rare Alleles [4]: 1.01
Prava vs. Placebo Odds Ratio, 1 Rare Alleles [4]: 0.76
Prava vs. Placebo Odds Ratio, 2 Rare Alleles [4]: 0.52
Prava vs. Placebo Odds Ratio, 0 Rare Alleles [5]: 1.02
Prava vs. Placebo Odds Ratio, 1 Rare Alleles [5]: 0.75
Prava vs. Placebo Odds Ratio, 2 Rare Alleles [5]: 0.52
Prava vs. Placebo Odds Ratio, 0 Rare Alleles [6]: 1.07
Prava vs. Placebo Odds Ratio, 1 Rare Alleles [6]: 0.72
Prava vs. Placebo Odds Ratio, 2 Rare Alleles [6]: 0.58
Fatal CHD/Definite Non-fatal MI, n/total (%) (NPC1 hCV25472673, 0 Rare Alleles, n/total 65/596): (10.9%)
Total Coronary Heart Disease Events, n/total (%) (NPC1 hCV25472673, 0 Rare Alleles, n/total 193/596): (32.4%)
Fatal/Non-fatal Atherosclerotic CV Disease, n/total (%) (NPC1 hCV25472673, 0 Rare Alleles, n/total 221/596): (37.1%)
Hosp. for Cardiovascular Disease, n/total (%) (NPC1 hCV25472673, 0 Rare Alleles, n/total 262/596): (44.0%)
Total Cardiovascular Disease Events, n/total (%) (NPC1 hCV25472673, 0 Rare Alleles, n/total 274/596): (46.0%)
Fatal CHD/Definite Non-fatal MI, n/total (%) (NPC1 hCV25472673, 1 Rare Allele, n/total 56/664): (8.4%)
Total Coronary Heart Disease Events, n/total (%) (NPC1 hCV25472673, 1 Rare Allele, n/total 186/664): (28.0%)
Fatal/Non-fatal Atherosclerotic CV Disease, n/total (%) (NPC1 hCV25472673, 1 Rare Allele, n/total 213/664): (32.1%)
Hosp. for Cardiovascular Disease, n/total (%) (NPC1 hCV25472673, 1 Rare Allele, n/total 255/664): (38.4%)
Total Cardiovascular Disease Events, n/total (%) (NPC1 hCV25472673, 1 Rare Allele, n/total 259/664): (39.0%)
Fatal CHD/Definite Non-fatal MI, n/total (%) (NPC1 hCV25472673, 2 Rare Alleles, n/total 19/242): (7.9%)
Total Coronary Heart Disease Events, n/total (%) (NPC1 hCV25472673, 2 Rare Alleles, n/total 59/242): (24.4%)
Fatal/Non-fatal Atherosclerotic CV Disease, n/total (%) (NPC1 hCV25472673, 2 Rare Alleles, n/total 68/242): (28.1%)
Hosp. for Cardiovascular Disease, n/total (%) (NPC1 hCV25472673, 2 Rare Alleles, n/total 88/242): (36.4%)
Total Cardiovascular Disease Events, n/total (%) (NPC1 hCV25472673, 2 Rare Alleles, n/total 90/242): (37.2%)
Prava vs. Placebo Odds Ratio, 0 Rare Alleles [7]: 1.00
Prava vs. Placebo Odds Ratio, 1 Rare Alleles [7]: 0.65
Prava vs. Placebo Odds Ratio, 2 Rare Alleles [7]: 0.41
Prava vs. Placebo Odds Ratio, 0 Rare Alleles [8]: 1.03
Prava vs. Placebo Odds Ratio, 1 Rare Alleles [8]: 0.73
Prava vs. Placebo Odds Ratio, 2 Rare Alleles [8]: 0.41
Prava vs. Placebo Odds Ratio, 0 Rare Alleles [9]: 1.02
Prava vs. Placebo Odds Ratio, 1 Rare Alleles [9]: 0.72
Prava vs. Placebo Odds Ratio, 2 Rare Alleles [9]: 0.40
Prava vs. Placebo Odds Ratio, 0 Rare Alleles [10]: 1.03
Prava vs. Placebo Odds Ratio, 1 Rare Alleles [10]: 0.71
Prava vs. Placebo Odds Ratio, 2 Rare Alleles [10]: 0.39
Prava vs. Placebo Odds Ratio, 0 Rare Alleles [11]: 1.01
Prava vs. Placebo Odds Ratio, 1 Rare Alleles [11]: 0.73
Prava vs. Placebo Odds Ratio, 2 Rare Alleles [11]: 0.44
Stroke, n/total (%) (0 Rare Alleles): (1.5%)
Stroke, n/total (%) (1 Rare Allele): (3.1%)
Stroke, n/total (%) (2 Rare Alleles): (0.9%)
Fatal CHD/Definite Non-fatal MI, n/total (%) (PEMT hCV7443062, 0 Rare Alleles, n/total 34/478): (7.1%)
Fatal CHD/Definite Non-fatal MI, n/total (%) (PEMT hCV7443062, 1 Rare Allele, n/total 72/735): (9.8%)
Fatal CHD/Definite Non-fatal MI, n/total (%) (PEMT hCV7443062, 2 Rare Alleles, n/total 34/305): (11.1%)
Prava vs. Placebo Odds Ratio, 0 Rare Alleles [12]: 0.42
Prava vs. Placebo Odds Ratio, 1 Rare Alleles [12]: 0.87
